Source: patent publication US20130195926A1, “MODULATION OF NITRIC OXIDE SIGNALING TO NORMALIZE TUMOR VASCULATURE” (The General Hospital Corporation, priority 2007, published 2013)

Tests used:
HIF-1α = assay: Western blot of HIF-1α expression in U87 tumors; type: in vivo; conditions: for HIF-1α protein levels, % of that in U87MG tumors: Western blot; for hypoxia inducible factor-1α (HIF-1α) protein levels: compared to U87MG tumors
Procedure: FIGS. 9A-E show the effect of nNOS silencing in U87 gliomas on tumor tissue oxygenation. Tissues shown in (A) were harvested and stained after injection of pimonidazole (60 mg/kg), followed by biotinylated lectin. Confocal laser scanning microscopy images (top row) of Hypoxyprobe™-1 adducts stained hypoxic cells (red), lectin-bound perfused blood vessels (green) and nuclei (blue) in U87MG, U87-shRNA58, and […] are 630 μm across. Binarized images (bottom row) of above confocal images. Bar indicates 100 μm. (B-C) Quantification of vessel segments (B) and vessel perimeter (C). (D) Quantification of hypoxic area. n=7, 3, 4 respectively. *p<0.05, as compared to U87MG tumors. (E) Western blot analysis of HIF-1α expression in U87MG and nNOS-snRNA-transfected U87 tumors. HIF-1α protein levels in U87-shRNA58 and U87-shRNA150 tumors were 46% and 59% of that in U87MG tumors, respectively. FIGS. 10A-C show the effect of nNOS silencing in U87 gliomas on fractionated radiation therapy. (A) Tumor growth normalized to day 0 tumor volume. (B) Tumor growth delay evaluated at the levels of 2, 4, and 6 times Vo. *P<0.05 as compared to U87MG. (C) Kaplan-Meier survival plot. U87 control (n=9), sh58 control (n=7), sh150 control (n=9), U87 radiation (n=8), sh58 radiation (n=6), sh150 radiation (n=10). FIGS. 11A-D show in vitro radiosensitivity and post-radiation tumor vasculature in U87 tumors. (A) Intrinsic tumor cell radiosensitivity was evaluated with the clonogenic assay. Following irradiation, the cells were incubated 9-13 d for colony formation depending on the dose administered. The surviving fractions were corrected for initial and final multiplicities determined 4-6 h after plating and at the time of irradiation. Data are expressed as mean±s.d. (B-D) When U87MG and nNOS-silenced U87 tumors grown in the hindleg in Rag-1^−/− mice reached ˜100 mm^3 they received 8 Gy/d for 3 d. […] (C-D) Quantification of the number of vessel segments (C) and vessel perimeter (D). […]
Equal amounts of 60 micrograms of protein per sample were separated on 7.5% SDS polyacrylamide gels, transferred onto polyvinylidene fluoride membrane (Millipore), incubated with primary antibodies followed by secondary antibodies (the same antibodies used in immunohistochemistry studies. See Immunohistochemistry methods below), and detected using enhanced chemiluminescence (GE Healthcare) by exposure on autoradiography films (Kodak) (Xu, L., et al. 2005 Cancer Res. 65, 5711-5719; Canneliet, P., et al. 1998 Nature 394, 485-490; Xu, L., et al. 2002 Journal of Biological Chemistry 277, 11368-11374 (2002); and Xu, L., et al. 2004 Clinical Cancer Research 10, 701-707).
The extent of hypoxia was determined in U87MG, U87-shRNA58, and U87-shRNA150 tumors utilizing a redox marker pimonidazole (Hypoxyprobe™-1 Kit, Millipore). […]

U87 tumors = assay: Pimonidazole hypoxia staining and vessel density in U87 tumors grown in the hind leg; type: in vivo, mice; conditions: for positive staining for hypoxia (Hypoxyprobe-1 adducts): subcutaneous hind leg tumors ~100 mm3, Rag-1-/- mice; for vessel density: subcutaneous hind leg tumors, compared to U87MG tumors
Procedure: To evaluate tumor hypoxia, a hypoxia marker pimonidazole was used (Winkler, F., et al. 2004 Cancer Cell 6, 553-563). Briefly, when tumors grown in the hindleg reached about 100 mm^3, 60 mg/kg pimonidazole was injected i.v. into the mice bearing subcutaneous tumors (100 mm^3) 1 hr before perfusion fixation following biotinylated lectin injection. Blood vessels were stained with a Alexa 488-conjugated streptavidin (Vector Laboratory). Pimonidazole-adducts in hypoxic cells were detected using Hypoxyprobe-1 kit (Millipore) stained with tetramethylrhodamine isothiocyanate (TRITC)-conjugated goat antibody to mouse IgG. Cell nuclei were counter-stained by 4,6-diamidino-2-phenylindole (DAPI). Fluorescent images were taken using confocal laser-scanning microscopy, and vessel density and the pimonidazole-positive hypoxic area were determined using NIH image 1.63 macro (Winkler, F., et al. 2004 Cancer Cell 6, 553-563).
The macro identified TRITC-pimonidazole positive area and Alexa 488-positive perfused vessel area and binarized them at the same threshold. The percent of pimonidazole positive area to the total area was determined, and then the number and the perimeters of the binarized vascular areas were quantified on image J software. These parameters were determined in three-five photographic areas from each tumor (630×630 μm^2 each).
The extent of hypoxia was determined in U87MG, U87-shRNA58, and U87-shRNA150 tumors utilizing a redox marker pimonidazole (Hypoxyprobe™-1 Kit, Millipore). To determine the level of hypoxia during a commonly used experimental radiation treatment, tumors were grown to ˜100 mm^3 subcutaneously in the hind leg of Rag-1^−/− mice. […] In nNOS silenced U87-shRNA58 tumors (U87-shRNA58 and U87-shRNA150), most of tumor cells have blood vessels in close proximity, and positive staining for hypoxia was hardly seen (FIG. 9A). In agreement with previous intravital observations in the cranium, increased vessel density was found in U87-shRNA58 and U87-shRNA150 tumors, as compared to U87MG tumors (FIG. 9B-C). Improved vascular morphology and function induced by the selective vascular localization of NO alleviate tumor tissue hypoxia (FIG. 9D). A reduction in hypoxia inducible factor-1α (HIF-1α) protein levels was also observed in the U87-shRNA58 and U87-shRNA150 tumors, as compared to U87MG tumors (FIG. 9E).

Row | Substance | HIF-1α protein levels, % of that in U87MG tumors (HIF-1α) | hypoxia inducible factor-1α (HIF-1α) protein levels (HIF-1α) | positive staining for hypoxia (Hypoxyprobe-1 adducts) (U87 tumors) | vessel density (U87 tumors)
1 | shRNA58: short-hairpin RNA for nNOS, CAAAGAGATCGACACCATC (sense), GATGGTGTCGATCTCTTTGTT (antisense), in pSilencer 3.1 H-1-hygro, stably transfected into U87MG | 46% | reduction | hardly seen | increased
2 | shRNA150: short-hairpin RNA for nNOS, GGTCTATCCAATGTCCACA (sense), TGTGGACATTGGATAGACCTT (antisense), in pSilencer 3.1 H-1-hygro | 59% | reduction | hardly seen | increased
